Experimental data from patent publication US11938203B2, “Oil-dispersed composition and cosmetics for lip care using the same” (AMOREPACIFIC CORPORATION, priority 2021, dated 2024).

Experiment: Compatibility between water-soluble effective raw materials and oils
Format: physicochemical
Description: Compatibility Between Water-Soluble Effective Raw Materials and Oils

[1] = ester oil and silicone-based oil that do not contain a glyceryl group or an isostearyl group
[2] = oil: Polyglyceryl-2 Triisostearate

| Compatibility with oil (in words) [1] | Compatibility with oil (oil: Diisostearyl Malate) | Compatibility with oil [2] | Compatibility with oil (in words) (diisostearyl malate oil (diester-based oil), FIG. 1) | Compatibility with oil (in words) (hydrocarbon oil-based oil or alcohol-based oil) | Compatibility with oil (oil: Diphenylsiloxy Phenyl Trimethicone) | Compatibility with oil (oil: Isononyl isononanoate) | Compatibility with oil (oil: Octyldodecyl neopentanoate) | Compatibility with oil (in words) (pentaerythrityl tetraisostearate oil, FIG. 2) | Molecule |
| --- | --- | --- | --- | --- | --- | --- | --- | --- | --- |
| poor compatibility | ◯ | ◯ |  |  |  |  |  |  | Ceramides |
| excellent compatibility | ◯ | ◯ | very good compatibility | poor compatibility | ◯ | ◯ | ◯ | very poor compatibility | COc1cc(/C=C/C(=O)Oc2cc(C)ccc2C(C)C)cc(OC)c1OC [Thymol trimethoxy cinnamate] |
